Laboratory results published in US8216783B2, “Over-expression and mutation of a tyrosine kinase receptor FGFR4 in tumors” (The United States of America, as represented by the …, priority 2008, dated 2012).
“Also recorded” adds a separate entry of the source. Like-named read-outs stand apart in the source and are kept apart here.

Tests used:
RD = assay: IC50 of PD173074 for killing human RMS cell lines (RT-CES cell growth monitoring); type: cell-based; conditions: RD cell line
Protocol: (§1) Briefly human RMS cell lines were seeded in the 96 well plate device at 5000-20,000 cells per well. […] Cell growth was monitored and IC50 values were calculated by Cell Office® (ACEA Biosciences, San Diego, Calif.).
(§2) Expression level of FGFR4 mRNA for each cell line was determined by real-time PCR (FIG. 10).

RH28 = assay: as above; type: cell-based; conditions: RH28 cell line
Protocol: as §1, §2

RH30 = assay: as above; type: cell-based; conditions: RH30 cell line
Protocol: as §1, §2

RH36 = assay: as above; type: cell-based; conditions: RH36 cell line
Protocol: as §1, §2

RH41 = assay: as above; type: cell-based; conditions: RH41 cell line
Protocol: as §1, §2

[1] = test system: RMS772 cells expressing vector only; assay: Percent cell survival of transduced RMS772 cell lines with PD173074; type: cell-based; conditions: Mus musculus; RMS772 vector control, 48 hours of treatment
[2] = test system: RMS772 cells expressing wild type FGFR4; assay: as above; type: cell-based; conditions: Mus musculus; RMS772 wild type FGFR4, 48 hours of treatment
[3] = test system: RMS772 cells expressing FGFR4 N535K (K535); assay: as above; type: cell-based; conditions: Mus musculus; RMS772 K535, 48 hours of treatment
[4] = test system: RMS772 cells expressing FGFR4 V550E (E550); assay: as above; type: cell-based; conditions: Mus musculus; RMS772 E550, 48 hours of treatment
[5] = test system: RMS119 cells expressing FGFR4 N535K or V550E; assay: Cell cycle assay (BrdU/7-AAD flow cytometry), apoptosis as subG1 fraction; type: cell-based, mouse; conditions: 5 uM for 24 hours
Protocol: (§3) The effect of […] in RMS119 and RMS772 transfectants was determined using cell cycle assays. […] Cells were then pulsed with BrdU for 40 minutes, and then fixed, permeabilized, and treated with DNase, and followed by staining with mAb (BD Biosciences, Franklin Lakes, N.J.) against BrdU and with 7-AAD (BD Biosciences, Franklin Lakes, N.J.) respectively. Flow cytometry was used to analyze the cell cycle parameters.
(§4) Apoptosis was assessed by determining the fraction of cells in the subG1 stage of the cell cycle. There were no differences in cell cycle parameters of RMS772 cells expressing TK domain mutants cultured in medium containing 10% FBS compared to vector or wild type FGFR4 (FIG. 9A).

[6] = test system: RMS772 cells expressing FGFR4 TK domain mutations N535K or V550E; assay: as above; type: cell-based, mouse; conditions: 5 uM for 24 hours
Protocol: as §3, §4

[7] = test system: RMS772 cells expressing FGFR4 N535K (K535) or V550E (E550); assay: Activated caspase 3 positive cells in RMS772 transductants; type: cell-based, mouse; conditions: both mutant RMS772 cell lines, 20 μM, 24 hour treatment
RH30 TRB H11.5 cells = assay: In vitro growth of RH30 TRB H11.5 cells with or without dox; type: cell-based, human; conditions: RH30 TRB H11.5, 25 nM dox, 13 days, P=0.0021
Protocol: FIG. 13B is a plot of RH30 TRB H11.5 cell growth with or without 25 nM dox for 120 hours.
FIG. 13C is a plot of RH30TRB H11.5 cell number 13 days after treatment with or without 25 nM dox.
Human rhabdomyosarcoma cell line RH30 was retrovirally transduced with vectors containing tetracycline repressor protein and ecotropic receptor. A tetracycline inducible shRNA construct targeting FGFR4 ([…], SEQ ID NO: 44) was used to transduce these RH30 cells as described previously (Ngo et al. Nature 441:106-110, 2006). Transduced RH30 cells were then subcloned. The subclone with the highest FGFR4 knockdown in the presence of doxycycline (dox) was used for in vitro and in vivo studies. The subclone chosen was designated as RH30 TRB H11.5 and was further transduced with a retroviral vector encoding luciferase. RH30 TRB H11.5 cells treated with or without 25 ng/ml doxycycline for 48 hours were harvested for Western blot for FGFR4 expression.

[8] = test system: RMS772 cells expressing FGFR4 N535K or V550E; assay: Relative cell number of RMS772 transductants treated with imatinib; type: cell-based, mouse; conditions: 10 μM, 24 hours
Protocol: To determine the sensitivity of FGFR4 mutants (N535K and V550E) to imatinib, RMS772 transductants were treated with imatinib (ranging from 0 μM to 40 μM). After 24 hours, relative cell number (normalized with control) was plotted against imatinib dose.

[9] = 24 hours, read-out: IC50 for killing, 24 hours
[10] = 48 hours, read-out: IC50 for killing, 48 hours
[11] = 72 hours, read-out: IC50 for killing, 72 hours

With `CCN(CC)CCCCNc1ncc2cc(-c3cc(OC)cc(OC)c3)c(NC(=O)NC(C)(C)C)nc2n1` [PD173074] the IC50 (RD; [9]) was 57.1 µM, the IC50 (RD; [10]) was 29.7 µM and the IC50 (RD; [11]) was 20.2 µM. It also gave an IC50 (RH28; [9]) of 2.22 µM, an IC50 (RH28; [10]) of 0.66 µM and an IC50 (RH28; [11]) of 0.5 µM. For the same compound, the IC50 (RH30; [9]) was 10 µM, the IC50 (RH30; [10]) was 8.32 µM and the IC50 (RH30; [11]) was 8.11 µM. The IC50 (RH36; [9]) was 25.9 µM, the IC50 (RH36; [10]) was 17.6 µM and the IC50 (RH36; [11]) was 20.2 µM. It also gave an IC50 (RH41; [9]) of 2.55 µM, an IC50 (RH41; [10]) of 0.96 µM and an IC50 (RH41; [11]) of 0.76 µM. For the same compound, the IC50 [1] was 12.7 µM, the IC50 [2] was 11.8 µM and the IC50 [3] was 8.2 µM. The IC50 [4] was 5.9 µM, the “apoptosis / cell cycle effect of treatment” value [5] was “not affected” and the “apoptosis (SubG1 fraction) compared with cells transfected with vector or wild type FGFR4” value [6] was “increase in apoptosis; also recorded: increased SubG1 fraction”. The “activated caspase 3 (cells positive, normalized to vector only)” value [7] was “increased activated caspase 3”.
With `C[C@H]1c2cccc(O)c2C(=O)C2=C(O)[C@]3(O)C(=O)C(C(N)=O)=C(O)[C@@H](N(C)C)[C@@H]3[C@@H](O)[C@@H]21` [dox, doxycycline] the “reduction in growth after prolonged culture” value (RH30 TRB H11.5 cells) was 41%.
`Cc1ccc(NC(=O)c2ccc(CN3CCN(C)CC3)cc2)cc1Nc1nccc(-c2cccnc2)n1` [imatinib, 4-[(4-methylpiperazin-1-yl)methyl]-N-[4-methyl-3-[(4-pyridin-3-ylpyrimidin-2-yl)amino]-phenyl]-benzamide] was tested, and the “sensitivity (relative cell number) of FGFR4 mutants versus wild type FGFR4 or control cells” value [8] was “more sensitive”.
